Tests used:
[1] = biological target: T1, Muscarinic acetylcholine receptor M1 (Homo sapiens, UniProt P11229); experiment: Agonist activity at muscarinic M1 receptor; assay type: functional
T1 sequence (P11229 whole entry): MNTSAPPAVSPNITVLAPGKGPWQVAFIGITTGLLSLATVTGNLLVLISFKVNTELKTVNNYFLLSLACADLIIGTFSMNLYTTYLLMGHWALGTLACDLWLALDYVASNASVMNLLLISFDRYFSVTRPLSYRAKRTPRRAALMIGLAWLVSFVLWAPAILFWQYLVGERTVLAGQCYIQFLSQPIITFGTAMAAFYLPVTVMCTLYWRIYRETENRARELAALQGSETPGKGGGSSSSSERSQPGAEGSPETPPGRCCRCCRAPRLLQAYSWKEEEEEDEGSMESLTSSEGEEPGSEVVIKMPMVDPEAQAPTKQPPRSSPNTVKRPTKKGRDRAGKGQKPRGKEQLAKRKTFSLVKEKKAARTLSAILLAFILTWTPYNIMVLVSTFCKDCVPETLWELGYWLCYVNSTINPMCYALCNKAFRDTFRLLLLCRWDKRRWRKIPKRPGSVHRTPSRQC

[2] = biological target: T2, Muscarinic acetylcholine receptor M1 (Homo sapiens) (UniProt P11229); experiment: Agonist activity at muscarinic M1 receptor relative to carbachol; assay type: functional
T2 sequence (whole entry): T1 sequence (P11229 whole entry)

D(2) dopamine receptor [3] = biological target: T3, D(2) dopamine receptor (Homo sapiens, UniProt P14416); experiment: Inhibition of dopamine D2 receptor
[4] = biological target: T4, Muscarinic acetylcholine receptor M2 (Homo sapiens, UniProt P08172); experiment: Agonist activity at muscarinic M2 receptor; assay type: functional
T4 sequence (P08172 whole entry): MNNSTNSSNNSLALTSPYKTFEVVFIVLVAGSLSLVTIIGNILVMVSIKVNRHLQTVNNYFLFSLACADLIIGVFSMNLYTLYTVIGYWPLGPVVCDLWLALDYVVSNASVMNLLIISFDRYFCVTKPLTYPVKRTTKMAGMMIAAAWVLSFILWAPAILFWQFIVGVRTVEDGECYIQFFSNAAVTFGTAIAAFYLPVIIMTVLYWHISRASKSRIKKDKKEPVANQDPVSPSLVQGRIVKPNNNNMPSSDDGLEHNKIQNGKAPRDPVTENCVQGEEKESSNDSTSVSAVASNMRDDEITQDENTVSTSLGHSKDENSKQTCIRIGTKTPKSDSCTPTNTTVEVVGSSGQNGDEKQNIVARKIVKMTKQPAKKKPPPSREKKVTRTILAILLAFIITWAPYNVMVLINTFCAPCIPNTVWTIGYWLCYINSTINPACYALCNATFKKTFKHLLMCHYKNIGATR

[5] = biological target: Muscarinic acetylcholine receptor M3 (Homo sapiens, UniProt P20309); experiment: Agonist activity at muscarinic M3 receptor; assay type: functional
[6] = biological target: T5, Muscarinic acetylcholine receptor M4 (Homo sapiens, UniProt P08173); experiment: Agonist activity at muscarinic M4 receptor; assay type: functional
T5 sequence (P08173 whole entry): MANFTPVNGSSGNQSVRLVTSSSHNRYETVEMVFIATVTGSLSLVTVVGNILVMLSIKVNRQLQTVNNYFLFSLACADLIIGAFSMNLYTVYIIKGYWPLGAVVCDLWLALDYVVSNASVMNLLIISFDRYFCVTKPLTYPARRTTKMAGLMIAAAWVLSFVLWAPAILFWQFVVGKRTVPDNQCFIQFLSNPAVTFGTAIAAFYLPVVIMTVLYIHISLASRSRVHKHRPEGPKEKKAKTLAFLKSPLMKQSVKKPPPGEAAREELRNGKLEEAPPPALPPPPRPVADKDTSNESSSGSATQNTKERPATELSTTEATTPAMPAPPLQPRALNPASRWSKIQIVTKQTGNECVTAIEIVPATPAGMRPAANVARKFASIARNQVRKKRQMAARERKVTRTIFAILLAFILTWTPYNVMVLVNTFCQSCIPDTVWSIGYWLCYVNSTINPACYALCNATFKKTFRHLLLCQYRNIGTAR

[7] = biological target: T6, Muscarinic acetylcholine receptor M5 (Homo sapiens, UniProt P08912); experiment: Agonist activity at muscarinic M5 receptor; assay type: functional
T6 sequence (P08912 whole entry): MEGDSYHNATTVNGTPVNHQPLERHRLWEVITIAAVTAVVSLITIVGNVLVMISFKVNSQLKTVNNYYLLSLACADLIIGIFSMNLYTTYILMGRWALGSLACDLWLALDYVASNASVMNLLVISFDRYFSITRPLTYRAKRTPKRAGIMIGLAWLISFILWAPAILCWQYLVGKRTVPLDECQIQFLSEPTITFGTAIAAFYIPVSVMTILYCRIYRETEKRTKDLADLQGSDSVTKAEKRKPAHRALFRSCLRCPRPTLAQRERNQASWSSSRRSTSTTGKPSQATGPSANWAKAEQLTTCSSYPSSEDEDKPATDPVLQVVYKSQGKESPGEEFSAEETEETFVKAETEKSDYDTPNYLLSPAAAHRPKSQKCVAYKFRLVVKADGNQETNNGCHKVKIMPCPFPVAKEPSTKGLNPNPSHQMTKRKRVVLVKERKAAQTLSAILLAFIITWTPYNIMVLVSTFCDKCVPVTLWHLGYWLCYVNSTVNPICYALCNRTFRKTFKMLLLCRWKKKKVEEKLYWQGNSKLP

D(2) dopamine receptor [8] = biological target: T3, D(2) dopamine receptor; experiment: Inhibition of dopamine D2 receptor at 10 uM; parameters: scale not given: the % may be the effect or the level left
[9] = biological target: T7, Muscarinic acetylcholine receptor M2 (Homo sapiens) (UniProt P08172); experiment: Agonist activity at muscarinic M2 receptor relative to carbachol; assay type: functional
T7 sequence (whole entry): T4 sequence (P08172 whole entry)

[10] = biological target: T8, Muscarinic acetylcholine receptor M4 (Homo sapiens) (UniProt P08173); experiment: Agonist activity at muscarinic M4 receptor relative to carbachol; assay type: functional
T8 sequence (whole entry): T5 sequence (P08173 whole entry)

[11] = biological target: T9, Muscarinic acetylcholine receptor M5 (Homo sapiens) (UniProt P08912); experiment: Agonist activity at muscarinic M5 receptor relative to carbachol; assay type: functional
T9 sequence (whole entry): T6 sequence (P08912 whole entry)

T3 sequence (P14416 whole entry): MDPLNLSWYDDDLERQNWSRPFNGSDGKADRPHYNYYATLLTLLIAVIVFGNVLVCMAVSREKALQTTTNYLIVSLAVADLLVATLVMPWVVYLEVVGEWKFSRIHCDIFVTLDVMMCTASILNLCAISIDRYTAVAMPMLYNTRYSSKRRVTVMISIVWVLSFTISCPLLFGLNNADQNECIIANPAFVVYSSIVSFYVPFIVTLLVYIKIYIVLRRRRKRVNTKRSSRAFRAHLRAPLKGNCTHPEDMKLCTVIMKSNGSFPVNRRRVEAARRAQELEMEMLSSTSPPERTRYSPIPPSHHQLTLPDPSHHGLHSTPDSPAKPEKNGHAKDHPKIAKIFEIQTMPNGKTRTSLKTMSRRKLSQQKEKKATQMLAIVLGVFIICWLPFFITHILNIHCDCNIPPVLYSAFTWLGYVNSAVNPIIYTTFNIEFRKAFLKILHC
Muscarinic acetylcholine receptor M3, sequence (P20309 whole entry): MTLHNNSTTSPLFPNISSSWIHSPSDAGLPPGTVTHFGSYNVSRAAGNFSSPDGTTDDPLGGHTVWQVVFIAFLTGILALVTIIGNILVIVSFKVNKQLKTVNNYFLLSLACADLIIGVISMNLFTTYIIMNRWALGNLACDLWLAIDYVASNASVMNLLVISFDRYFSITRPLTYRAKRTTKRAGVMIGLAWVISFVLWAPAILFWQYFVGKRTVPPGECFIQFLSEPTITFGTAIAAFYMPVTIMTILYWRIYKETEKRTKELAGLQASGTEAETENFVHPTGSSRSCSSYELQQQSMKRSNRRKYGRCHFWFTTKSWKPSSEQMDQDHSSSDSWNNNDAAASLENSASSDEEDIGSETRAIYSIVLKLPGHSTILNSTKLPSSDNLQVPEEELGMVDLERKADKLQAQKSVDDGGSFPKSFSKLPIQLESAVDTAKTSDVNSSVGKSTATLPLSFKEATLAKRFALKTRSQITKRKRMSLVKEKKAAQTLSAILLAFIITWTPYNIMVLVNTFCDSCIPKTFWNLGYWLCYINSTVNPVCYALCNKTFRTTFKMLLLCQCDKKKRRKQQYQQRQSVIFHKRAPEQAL

SMILES | EC50 [1] [µM] | Activity [2] [%] | IC50 (D(2) dopamine receptor [3]) [µM] | EC50 [4] [µM] | EC50 [5] [µM] | EC50 [6] [µM] | EC50 [7] [µM] | Activity (D(2) dopamine receptor [8]) [%] | Activity [9] [%] | Activity [10] [%] | Activity [11] [%]
O=c1[nH]c2ccccc2n1C1CCN(C2CCN(Cc3ccccc3Cl)CC2)CC1 | 0.26 | 44 | 2.06 | > 50 | > 50 | > 50 | > 50 | – | – | – | –
N#Cc1ccccc1CN1CCC(N2CCC(n3c(=O)[nH]c4cc(Cl)ccc43)CC2)CC1 | 1.6 | 27 | – | > 50 | > 50 | > 50 | > 50 | – | – | – | –
O=c1[nH]c2ccccc2n1C1CCN(C2CCN(Cc3ccccc3[N+](=O)[O-])CC2)CC1 | 0.12 | 48 | 1.13 | > 50 | > 50 | > 50 | > 50 | – | – | – | –
O=c1[nH]c2cc(F)ccc2n1C1CCN(C2CCN(Cc3ccccc3C(F)(F)F)CC2)CC1 | – | 80 | 2.69 | > 50 | > 50 | > 50 | > 50 | – | – | – | –
O=c1[nH]c2cc(Cl)ccc2n1C1CCN(C2CCN(Cc3ccccc3Cl)CC2)CC1 | 1.8 | 49 | – | > 50 | > 50 | > 50 | > 50 | – | – | – | –
O=c1[nH]c2cc(Cl)ccc2n1C1CCN(C2CCN(Cc3ccccc3C(F)(F)F)CC2)CC1 | 1.5 | 83 | – | > 50 | > 50 | > 50 | > 50 | – | – | – | –
O=c1[nH]c2ccc(F)cc2n1C1CCN(C2CCN(Cc3ccccc3C(F)(F)F)CC2)CC1 | – | – | > 10 | > 50 | > 50 | > 50 | > 50 | – | – | – | –
N#Cc1ccccc1CN1CCC(N2CCC(n3c(=O)[nH]c4ccccc43)CC2)CC1 | 0.49 | 23 | – | > 50 | > 50 | > 50 | > 50 | 40 | – | – | –
Cc1ccccc1CN1CCC(N2CCC(n3c(=O)[nH]c4c(F)cccc43)CC2)CC1 | – | 73 | > 10 | > 50 | > 50 | > 50 | > 50 | – | – | – | –
O=c1[nH]c2cc(Cl)ccc2n1C1CCN(C2CCN(Cc3ccccc3[N+](=O)[O-])CC2)CC1 | 1.1 | 42 | – | > 50 | > 50 | > 50 | > 50 | – | – | – | –
Cc1ccccc1CN1CCC(N2CCC(n3c(=O)[nH]c4cc(F)ccc43)CC2)CC1 | – | 85 | – | > 50 | > 50 | > 50 | > 50 | 40 | – | – | –
Cc1ccccc1CN1CCC(N2CCC(n3c(=O)[nH]c4cc(Cl)ccc43)CC2)CC1 | 1.03 | 84 | – | > 50 | > 50 | > 50 | > 50 | 35 | – | – | –
Cc1ccccc1CN1CCC(N2CCC(n3c(=O)[nH]c4ccccc43)CC2)CC1 | – | 82 | 2.65 | > 50 | – | – | > 50 | – | – | – | –
CCOC(=O)N1CCC(N2CCC(n3c(=O)[nH]c4ccccc43)CC2)CC1 | – | – | > 10 | 0.0119 | – | 0.0091 | 0.0343 | – | 80.6 | 96.9 | 50.8
Cc1ccccc1CN1CCC(N2CCC(n3c(=O)[nH]c4ccc(F)cc43)CC2)CC1 | – | 84 | > 10 | > 50 | > 50 | > 50 | > 50 | – | – | – | –
O=c1[nH]c2cc(Cl)ccc2n1C1CCN(C2CCN(Cc3ccccc3)CC2)CC1 | 0.356 | 74 | – | > 50 | > 50 | > 50 | > 50 | 35 | – | – | –
O=c1[nH]c2c(F)cccc2n1C1CCN(C2CCN(Cc3ccccc3C(F)(F)F)CC2)CC1 | – | 75 | > 10 | > 50 | > 50 | > 50 | > 50 | – | – | – | –
O=c1[nH]c2ccccc2n1C1CCN(C2CCN(Cc3ccccc3C(F)(F)F)CC2)CC1 | 0.41 | – | – | > 50 | > 50 | > 50 | > 50 | 30 | – | – | –
